According to US12441726B2, “Compounds and uses thereof” (Foghorn Therapeutics Inc., priority 2020, dated 2025):

What was measured:
BRM = BRM (Homo sapiens, UniProt P51531); experiment: ATPase catalytic activity assay (ADP-Glo), BRM; conditions: 30 nM BRM, 400 μM ATP; for IC50: BRM ATPase: IC50 (uM)
Method: The ATPase catalytic activity of BRM or BRG-1 was measured by an in vitro biochemical assay using ADP-Glo™ (Promega, V9102). The ADP-Glo™ kinase assay is performed in two steps once the reaction is complete. The first step is to deplete any unconsumed ATP in the reaction. The second step is to convert the reaction product ADP to ATP, which will be utilized by the luciferase to generate luminesce and be detected by a luminescence reader, such as Envision.
Then following addition of 5 μL of ADP-Glo™ Reagent provided in the kit, the reaction incubates at room temperature for 40 minutes. Then 10 μL of Kinase Detection Reagent provided in the kit is added to convert ADP to ATP, and the reaction incubates at room temperature for 60 minutes. Finally, luminescence measurement is collected with a plate-reading luminometer, such as Envision.

BRG-1 = BRG-1 (Homo sapiens, UniProt P51532); experiment: ATPase catalytic activity assay (ADP-Glo), BRG-1; conditions: for Emax: 1 h, read-out: BRG1 Max % Inhibition, ADP-Glo, 30 nM BRG-1, 400 μM ATP
Chain of BRG-1 (P51532 whole entry): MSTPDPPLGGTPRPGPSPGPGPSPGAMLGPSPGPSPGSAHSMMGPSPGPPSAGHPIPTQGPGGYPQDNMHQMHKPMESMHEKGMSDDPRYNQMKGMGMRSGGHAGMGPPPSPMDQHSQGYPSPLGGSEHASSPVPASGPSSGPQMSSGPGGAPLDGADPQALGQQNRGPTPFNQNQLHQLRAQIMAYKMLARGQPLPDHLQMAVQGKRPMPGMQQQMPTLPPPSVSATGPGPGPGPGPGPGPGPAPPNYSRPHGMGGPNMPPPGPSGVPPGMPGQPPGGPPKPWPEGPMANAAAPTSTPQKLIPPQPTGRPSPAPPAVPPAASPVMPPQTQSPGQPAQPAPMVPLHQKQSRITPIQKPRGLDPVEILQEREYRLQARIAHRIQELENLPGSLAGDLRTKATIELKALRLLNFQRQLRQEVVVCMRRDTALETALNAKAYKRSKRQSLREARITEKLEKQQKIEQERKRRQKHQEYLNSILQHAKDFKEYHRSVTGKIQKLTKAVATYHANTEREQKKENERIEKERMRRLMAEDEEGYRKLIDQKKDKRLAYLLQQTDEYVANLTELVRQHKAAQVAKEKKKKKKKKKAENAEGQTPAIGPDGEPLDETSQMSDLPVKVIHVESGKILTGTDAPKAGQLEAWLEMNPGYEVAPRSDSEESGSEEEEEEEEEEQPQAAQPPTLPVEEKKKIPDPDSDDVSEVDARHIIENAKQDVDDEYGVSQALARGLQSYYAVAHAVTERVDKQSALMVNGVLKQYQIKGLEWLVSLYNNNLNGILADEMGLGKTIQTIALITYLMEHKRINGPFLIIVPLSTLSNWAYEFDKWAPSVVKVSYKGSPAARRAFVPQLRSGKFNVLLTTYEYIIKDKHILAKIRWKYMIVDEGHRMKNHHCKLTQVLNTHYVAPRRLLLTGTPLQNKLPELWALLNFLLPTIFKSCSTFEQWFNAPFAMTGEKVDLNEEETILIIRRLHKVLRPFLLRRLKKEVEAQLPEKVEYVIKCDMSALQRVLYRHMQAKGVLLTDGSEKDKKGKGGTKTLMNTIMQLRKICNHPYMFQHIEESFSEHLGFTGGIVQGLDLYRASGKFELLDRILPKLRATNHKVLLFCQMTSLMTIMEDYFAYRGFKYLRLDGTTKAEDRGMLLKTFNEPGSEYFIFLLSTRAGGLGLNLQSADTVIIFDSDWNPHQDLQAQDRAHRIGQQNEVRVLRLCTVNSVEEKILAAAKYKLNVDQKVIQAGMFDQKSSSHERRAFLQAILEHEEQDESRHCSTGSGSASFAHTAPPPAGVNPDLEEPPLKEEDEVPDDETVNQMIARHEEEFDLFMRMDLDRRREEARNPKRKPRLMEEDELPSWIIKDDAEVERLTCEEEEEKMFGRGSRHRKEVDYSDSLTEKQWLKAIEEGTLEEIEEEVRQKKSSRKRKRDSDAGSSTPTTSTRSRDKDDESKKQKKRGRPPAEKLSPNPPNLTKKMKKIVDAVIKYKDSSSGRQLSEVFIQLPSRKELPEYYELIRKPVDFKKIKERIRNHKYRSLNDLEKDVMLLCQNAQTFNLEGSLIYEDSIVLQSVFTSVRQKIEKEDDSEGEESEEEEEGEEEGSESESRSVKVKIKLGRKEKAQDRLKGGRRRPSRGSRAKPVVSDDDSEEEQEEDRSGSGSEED

Chain of BRM (P51531 whole entry): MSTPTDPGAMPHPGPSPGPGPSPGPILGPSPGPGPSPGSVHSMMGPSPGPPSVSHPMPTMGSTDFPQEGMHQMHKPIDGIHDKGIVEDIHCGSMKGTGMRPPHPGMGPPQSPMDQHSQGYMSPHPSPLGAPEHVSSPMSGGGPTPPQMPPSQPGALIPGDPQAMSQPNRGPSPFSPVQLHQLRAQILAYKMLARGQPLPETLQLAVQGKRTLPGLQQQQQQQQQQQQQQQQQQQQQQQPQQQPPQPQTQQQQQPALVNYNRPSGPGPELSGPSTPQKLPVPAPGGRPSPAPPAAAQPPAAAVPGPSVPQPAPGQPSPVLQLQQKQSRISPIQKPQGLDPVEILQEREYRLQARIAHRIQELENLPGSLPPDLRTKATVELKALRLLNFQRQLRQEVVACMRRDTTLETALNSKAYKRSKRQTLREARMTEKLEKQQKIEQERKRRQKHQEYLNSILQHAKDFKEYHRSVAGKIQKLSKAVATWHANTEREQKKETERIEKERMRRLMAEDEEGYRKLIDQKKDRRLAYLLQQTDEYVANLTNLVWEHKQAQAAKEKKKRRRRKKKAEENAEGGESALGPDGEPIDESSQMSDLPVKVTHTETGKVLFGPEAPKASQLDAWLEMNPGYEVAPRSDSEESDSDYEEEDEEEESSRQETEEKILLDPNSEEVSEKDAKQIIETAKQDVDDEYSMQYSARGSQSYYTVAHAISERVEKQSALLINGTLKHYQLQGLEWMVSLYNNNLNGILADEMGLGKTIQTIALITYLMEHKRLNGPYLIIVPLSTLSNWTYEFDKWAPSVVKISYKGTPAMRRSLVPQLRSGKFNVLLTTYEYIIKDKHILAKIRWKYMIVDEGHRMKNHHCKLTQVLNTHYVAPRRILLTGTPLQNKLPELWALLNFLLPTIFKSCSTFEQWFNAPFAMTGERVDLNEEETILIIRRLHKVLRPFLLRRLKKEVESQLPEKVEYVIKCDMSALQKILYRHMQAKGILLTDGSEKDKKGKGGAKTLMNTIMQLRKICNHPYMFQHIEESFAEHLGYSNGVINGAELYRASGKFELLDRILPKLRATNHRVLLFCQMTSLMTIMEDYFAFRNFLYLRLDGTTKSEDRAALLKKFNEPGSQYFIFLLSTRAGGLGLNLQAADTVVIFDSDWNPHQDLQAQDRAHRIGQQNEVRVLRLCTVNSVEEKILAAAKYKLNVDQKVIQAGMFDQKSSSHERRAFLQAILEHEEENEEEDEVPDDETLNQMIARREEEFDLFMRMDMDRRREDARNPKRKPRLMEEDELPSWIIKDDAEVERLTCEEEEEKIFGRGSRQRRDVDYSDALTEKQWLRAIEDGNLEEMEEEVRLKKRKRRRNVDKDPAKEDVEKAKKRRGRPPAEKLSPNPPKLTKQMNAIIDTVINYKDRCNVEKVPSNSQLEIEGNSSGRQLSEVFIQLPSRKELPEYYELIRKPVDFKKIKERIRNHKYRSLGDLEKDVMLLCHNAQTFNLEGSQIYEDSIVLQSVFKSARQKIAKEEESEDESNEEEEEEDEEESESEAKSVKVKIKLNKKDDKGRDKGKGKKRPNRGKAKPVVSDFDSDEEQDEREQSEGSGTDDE

BRM Max % Inhibition (BRM) [%] | IC50 (BRM) [µM] | IC50 (BRG-1) [nM] | Emax (BRG-1) [%] | Compound
102 | < 0.1 | 100 to 500 | 93 | COc1nn(C)cc1-c1ccc2cnc(CNC(=O)c3ccc4c(c3)[C@](C)(C#N)COC4)cc2c1 [Compound 367]
93 | 0.1 to 0.5 | 500 to 1000 | 58 | C[C@@]1(F)COCc2ccc(C(=O)NCc3cc4nc(-c5cccc(C6(O)CCOCC6)n5)ccc4cn3)cc21 [Compound 302]
96 | 0.1 to 0.5 | 500 to 1000 | 72 | Cc1cnn(-c2ccc3cnc(CNC(=O)c4ccc5c(c4)[C@](C)(C#N)COC5)cc3n2)c1 [Compound 505]
98 | < 0.1 | 100 to 500 | 92 | COc1cccc2c1CCN(c1ccnc(CNC(=O)c3ccc4c(c3)[C@](C)(C#N)COC4)c1)C2 [Compound 56]
101 | < 0.1 | 100 to 500 | 93 | C[C@@]1(F)COCc2ccc(C(=O)NCc3cc4nc(-c5cccc(N6CCCC6=O)n5)ccc4nn3)cc21 [Compound 239]
97 | 0.1 to 0.5 | 500 to 1000 | 67 | C[C@@]1(F)COCc2ccc(C(=O)NCc3cc4nc(-c5ccnn(C6CC6)c5=O)ccc4cn3)cc21 [Compound 268]
94 | 0.1 to 0.5 | 500 to 1000 | 55 | COc1ccc([C@H]2C[C@@H](c3ccnc(CNC(=O)c4ccc5c(c4)[C@](C)(C#N)COC5)c3)C2)cc1 [Compound 70]
96 | < 0.1 | 100 to 500 | 95 | COC1CN(c2cncc(-c3ccc4cnc(CNC(=O)c5ccc6c(c5)[C@](C)(C#N)COC6)cc4n3)n2)C1 [Compound 409]
101 | < 0.1 | < 100 | 97 | CCc1cc2c(-c3ccc4cnc(CNC(=O)c5ccc6c(c5)[C@](C)(C#N)COC6)cc4n3)cccc2n1C [Compound 134]
95 | 0.1 to 0.5 | 500 to 1000 | 84 | C[C@@]1(C#N)COCc2ccc(C(=O)NCc3cc4nc(-c5ccn6nccc6n5)ccc4cn3)cc21 [Compound 447]
98 | < 0.1 | 100 to 500 | 97 | C[C@@]1(F)COCc2ccc(C(=O)NCc3cc4nc(-c5ccnc(N6CC[C@H]7COC[C@@H]7C6)n5)ccc4cn3)cc21 [Compound 307]
100 | < 0.1 | < 100 | 92 | C[C@@]1(C#N)COCc2ccc(C(=O)NCc3cc4nc(-c5cccc(N6CCC6)n5)ccc4cn3)cc21 [Compound 496]
96 | < 0.1 | 100 to 500 | 90 | C[C@@]1(C#N)COCc2ccc(C(=O)NCc3cc4nc(-c5ccc(C(F)F)cc5)ccc4cn3)cc21 [Compound 519]
96 | 0.1 to 0.5 | 500 to 1000 | 49 | C[C@@]1(C#N)COCc2ccc(C(=O)NCc3cc4c(nn3)CCN(c3cccc(N5CCC5)n3)C4)cc21 [Compound 234]
90 | 0.1 to 0.5 | > 1000 | 56 | C[C@@]1(C#N)COCc2ccc(C(=O)NCc3cc(C#Cc4ccccc4)ccn3)cc21 [Compound 1]
93 | 0.1 to 0.5 | 500 to 1000 | 56 | Cn1cc2c(-c3ccc4cnc(CNC(=O)c5ccc6c(c5)[C@](C)(C#N)COC6)cc4n3)cccc2n1 [Compound 151]
93 | 0.1 to 0.5 | 500 to 1000 | 67 | Cc1nccc(-c2ccc3cnc(CNC(=O)c4ccc5c(c4)[C@](C)(C#N)COC5)cc3n2)n1 [Compound 444]
100 | < 0.1 | 100 to 500 | 86 | C[C@@]1(C#N)COCc2ccc(C(=O)NCc3cc4cc(-c5ccnc(N6CCC6)c5F)cnc4cn3)cc21 [Compound 294]
101 | < 0.1 | 100 to 500 | 94 | Cn1cc(F)c2c(-c3ccc4cnc(CNC(=O)c5ccc6c(c5)[C@](C)(C#N)COC6)cc4n3)cccc21 [Compound 138]
88 | 0.1 to 0.5 | > 1000 | 25 | C[C@@]1(F)COCc2ncc(C(=O)NCc3cc4nc(-c5ccnc(N6CCC6)n5)sc4cn3)cc21 [Compound 244]
105 | 0.1 to 0.5 | 500 to 1000 | 81 | CNC(=O)c1ccc(-c2ccc3cnc(CNC(=O)c4ccc5c(c4)[C@](C)(C#N)COC5)cc3n2)cc1 [Compound 324]
93 | 0.1 to 0.5 | > 1000 | 65 | C[C@@]1(C#N)COCc2ccc(C(=O)NCc3cc4c(nn3)CCN(c3cncc(N5CCC5)n3)C4)cc21 [Compound 247]

BRM Max % Inhibition (BRM) [%] | IC50 (BRM) [µM] | IC50 (BRG-1) [nM] | Emax (BRG-1) [%] | Compound
97 | 0.1 to 0.5 | 500 to 1000 | 62 | C[C@@]1(C#N)COCc2ccc(C(=O)NCc3cc4c(cn3)CCN(c3ccc(=O)n(C5CC5)n3)C4)cc21 [Compound 230]
88 | 0.1 to 0.5 | > 1000 | 36 | C[C@@]1(C#N)COCc2ccc(C(=O)NCc3cc4nc(-c5cccnc5)sc4cn3)cc21 [Compound 439]
99 | < 0.1 | 100 to 500 | 93 | C[C@@]1(C#N)COCc2ccc(C(=O)NCc3cc4nc(-c5cc(F)cc(N6CCC6)c5)ccc4cn3)cc21 [Compound 95]
88 | 0.1 to 0.5 | > 1000 | 48 | CN(C)C(=O)c1cccc(-c2ccc3cnc(CNC(=O)c4ccc5c(c4)[C@](C)(C#N)COC5)cc3n2)n1 [Compound 464]
98 | < 0.1 | 100 to 500 | 85 | C[C@@]1(C#N)COCc2ccc(C(=O)NCc3cc4nc(-c5cccc(C(F)F)n5)ccc4cn3)cc21 [Compound 469]
104 | < 0.1 | 100 to 500 | 92 | C[C@@]1(F)COCc2ccc(C(=O)NCc3cc4nc(-c5cncc(N6CCOCC6)n5)ccc4cn3)cc21 [Compound 319]
97 | < 0.1 | > 1000 | 98 | C[C@@]1(C#N)COCc2ccc(C(=O)NCc3cc4nc(-c5ccccc5)sc4cn3)cc21 [Compound 124]
84 | > 1 | > 1000 | 20 | CN1C[C@@](C)(C#N)c2cc(C(=O)NCc3cc4nc(-c5ccccc5)ccc4cn3)ccc21 [Compound 96]
99 | < 0.1 | > 1000 | 78 | COC(=O)c1cccc(C#Cc2ccnc(CNC(=O)c3ccc4c(c3)[C@](C)(C#N)COC4)c2)c1 [Compound 3]
99 | < 0.1 | 500 to 1000 | 99 | CN1CCC(C(=O)N2CCN(c3cccc(-c4ccc5cnc(CNC(=O)c6ccc7c(c6)[C@](C)(C#N)COC7)cc5n4)n3)CC2)CC1 [Compound 287]
101 | < 0.1 | 100 to 500 | 84 | C[C@@]1(C#N)COCc2ccc(C(=O)NCc3cc4cc(-c5nccc(N6CCC6)n5)ccc4nn3)cc21 [Compound 335]
94 | 0.1 to 0.5 | 500 to 1000 | 61 | COc1nn(C)cc1-c1cnc2cnc(CNC(=O)c3ccc4c(c3)[C@](C)(C#N)COC4)cc2c1 [Compound 261]
98 | 0.1 to 0.5 | > 1000 | 78 | C[C@@]1(C#N)COCc2ccc(C(=O)NCc3nccc(/C=C/c4ccccc4)c3F)cc21 [Compound 33]
97 | 0.1 to 0.5 | 500 to 1000 | 76 | COc1ccncc1-c1ccc2cnc(CNC(=O)c3ccc4c(c3)[C@](C)(C#N)COC4)cc2n1 [Compound 489]
99 | < 0.1 | 100 to 500 | 94 | COc1cc(F)cc2c1CCN(c1ccnc(CNC(=O)c3ccc4c(c3)[C@](C)(C#N)COC4)c1)C2 [Compound 51]
100 | < 0.1 | 100 to 500 | 95 | C[C@@]1(C#N)COCc2ccc(C(=O)NCc3cc4nc(-c5cccc(N6CCC6=O)n5)ccc4cn3)cc21 [Compound 392]
88 | 0.1 to 0.5 | 500 to 1000 | 53 | C[C@@]1(C#N)COCc2ccc(C(=O)NCc3cc4nc(-c5cnccn5)ccc4cn3)cc21 [Compound 520]
93 | 0.1 to 0.5 | > 1000 | 53 | CN1CCN(c2cccc(-c3ccc4cnc(CNC(=O)c5ccc6c(c5)[C@](C)(C#N)COC6)cc4n3)c2)CC1 [Compound 474]
83 | 0.1 to 0.5 | 500 to 1000 | 67 | C[C@@]1(F)COCc2ccc(C(=O)NCc3cc4nc(N5CCN(C6CC6)S5(=O)=O)ccc4cn3)cc21 [Compound 279]
85 | 0.1 to 0.5 | 500 to 1000 | 55 | C[C@@]1(C#N)COCc2ccc(C(=O)NCc3cc4nc(-c5cnn6c5OCCC6)ccc4cn3)cc21 [Compound 405]
97 | < 0.1 | 500 to 1000 | 76 | C[C@@]1(F)COCc2ccc(C(=O)NCc3cc4nc(-c5ccnc(C6CC6)n5)cnc4cn3)cc21 [Compound 191]
